Experimental data reported in patent US10499648B2, “Sterilization method, formulation for sterilization use, and device for producing sterilizing liquid” (priority 2014, dated 2019).

How the values were obtained:
[1] = equilibrium O2-. + H+ <-> HOO.; cited from earlier work
[2] = Activation energy in decomposition response, compared with literature value; assay type: physicochemical
Procedure: As for the substance corresponding to the retention time RT of 2.8 minutes shown in FIG. 5, an activation energy in decomposition response thereof was actually measured. The activation energy measured was compared to an activation energy in decomposition response of peroxynitric acid. The comparison result is provided as follows: • Actual measured value: 109 kJ/mol • Literature value: 110 kJ/mol • Both the values are in good accord with each other. Thereby, the substance corresponding to the retention time RT of 2.8 minutes is probably peroxynitric acid.
The activation energy in decomposition response herein was cited from the following document.
J. Phys. Chem. A 1997, 101, 8822-8829 “Peroxynitric Acid Decay Mechanisms and Kinetics at Low pH”.

[3] = Sterilization effect after adding enzyme for disappearing superoxide anion radicals
Source text: The peroxynitric acid in the solution is probably a precursor which produces the superoxide anion radicals (O2—.). The superoxide anion radicals (O2—.) are probably precursors which produce the hydroperoxy radicals (HOO.).

[4] = J. Phys. Chem. A 1997, 101, 8822-8829; cited from earlier work
[5] = system: Bacillus subtilis spore; assay: Sterilization effect of synthesized peroxynitric acid on Bacillus subtilis spore (FIGS. 9-11); assay type: cell-based; conditions: for drop of the number of living microorganisms in Bacillus subtilis spore: peroxynitric acid approximately 0.5 mM or higher, pH 3.5
Procedure: Where the solution of the synthesized peroxynitric acid has a pH value of 3.5 and the peroxynitric acid has a concentration of approximately 0.5 mM or higher, the number of living microorganisms in Bacillus subtilis spore drops from 6 orders of magnitude to 2 orders of magnitude or less, which indicates a drop of 4 orders of magnitude or more.
(§1) In this experiment, the detection limit was reached when the number of living microorganisms was in 2 orders of magnitude or less, then further sterilization effect was not measured. Thus, if the concentration of the synthesized peroxynitric acid is further increased, the number of living microorganisms is expected to be further reduced. In the experiment, diluted solution of the synthesized peroxynitric acid was used. If undiluted solution is used, more powerful microbicidal activity is expected to be exerted. The peroxynitric acid synthesized in the fourth embodiment has a concentration of 420 mM. For example, using undiluted solution of the synthesized peroxynitric acid probably lowers the number of living microorganisms to further […] of magnitude or more.

[6] = Lifetime / decomposition of synthesized peroxynitric acid depending on temperature; assay type: physicochemical; conditions: solution at 0° C.
Source text: The synthesis reaction of peroxynitric acid progresses also at a room temperature. To be specific, peroxynitric acid is synthesized at a room temperature; however, the lifetime of the synthesized peroxynitric acid depends on temperature. Where being saved at a room temperature, the synthesized peroxynitric acid is quickly decomposed to turn into nitric acid in a short time. When the temperature rises by 5 degrees, the rate of decomposition doubles. For example, the rate of decomposition at a temperature of 20° C. is 16 times as fast as that at a temperature of 0° C. (zero). Thus, the synthesized peroxynitric acid turns into nitric acid solution very quickly at a temperature of 50° C. The half-life of the peroxynitric acid is 10 minutes or so at a room temperature. The half-life of the peroxynitric acid is a few hours (2 to 3 hours or so) at a temperature of 0 (zero) degrees.
In order to preserve the solution with the biocidal activity maintained, it is preferable to set the temperature of the solution as low as possible. For example, the solution is adjusted to have a temperature of 0° C., which enables the solution to be stored/preserved for a couple of hours, for example, for 5 to 8 hours or so. Freezing the solution allow the solution to be preserved for a longer time.

[7] = system: Escherichia coli; assay: Sterilization effect of synthesized peroxynitric acid on Escherichia coli (FIG. 8); assay type: cell-based; conditions: peroxynitric acid approximately 0.02 mM or higher; pH 3.5; 25° C.; from 7 orders to 2 orders or less (detection limit)
Procedure: In FIGS. 8, 9, and 11, solution of peroxynitric acid has a pH value of 3.5 and a temperature of 25° C. In the heat treatment of FIG. 10, the solution of peroxynitric acid is heated for thirty minutes to have a temperature of 60° C.
as §1

[8] = Time needed for sterilization depending on solution temperature; conditions: solution temperature 30° C.
Procedure: Where the solution has a temperature of 10° C. or lower, the solution may be applied to an object to be sterilized with the temperature remaining unchanged. It is also possible to raise the temperature of the solution to 20° C. or more at the time of application of the solution to the object to be sterilized. It is preferable for the solution to have a lower temperature in order to preserve peroxynitric acid, but at the same time, is preferable for the solution to have a certain level of high temperature for sterilization. To be specific, while the solution having a temperature of 0° C. needs time to sterilize the object, the solution having a temperature of 30° C. needs only 20 seconds to sufficiently sterilize the object. When the situation permits to take time to sterilize the object, it is preferable to perform sterilization at a low temperature. When quick sterilization is needed, it is preferable to raise the temperature, for example, to 30 through 40° C.

Molecule	pKa (acid dissociation constant) [1]	activation energy in decomposition response, actual measured value [2] [kcal/mol]	sterilization effect with enzyme for disappearing superoxide anion radicals in the solution [3]	activation energy in decomposition response, literature value [4] [kcal/mol]	drop of the number of living microorganisms in Bacillus subtilis spore ([5]; FIG. 9, 25° C., from 6 orders to 2 orders or less (detection limit)) [orders]	drop of the number of living microorganisms in Bacillus subtilis spore ([5]; FIG. 10)	number of living microorganisms in Bacillus subtilis spore ([5]; FIG. 10, solution pH 6.5, stays in 6 orders of magnitude)	sterilization effect on Bacillus subtilis spore after heat treatment ([5]; FIG. 11, peroxynitric acid heated thirty minutes to 60° C., count stays in 6 orders of magnitude)	time the solution can be stored/preserved with biocidal activity maintained [6] [h]	drop of the fungicidal concentration (number of living microorganisms) of Escherichia coli [7] [orders]	time needed to sufficiently sterilize the object [8] [s]
[O]O [hydroperoxy radicals (HOO.), hydroperoxy radicals]	4.8										
peroxynitric acid		26.1	sterilization effect is not observed	26.3	≥ 4	≥ 4 orders of magnitude	approximately constant independently of the concentration of the peroxynitric acid	disappearance of sterilization effect	5 to 8	≥ 5	20
